ChEMBL document CHEMBL3745623, “Polyphenols isolated from leaves of Vitis thunbergii var. taiwaniana regulate APP related pathway” (Bioorg Med Chem Lett, 2016)
Activity calls are given as the source filed them. The calls are words filed in the database; no cut-off is given here.

Columns and labels:
N2a [1] = experiment: Effect on immature ADAM10 level in mouse N2A cells expressing human APP695 at 8 uM after 10 hrs by Western blot analysis; assay type: functional, cell-based
[2] = target: Beta-secretase 1 (Homo sapiens) (UniProt P56817); experiment: Inhibition of BACE1 in human SH-SY5Y cells at 8 uM after 10 hrs by fluorescence plate reader analysis; assay type: cell-based
Sequence of Beta-secretase 1 (Homo sapiens) (P56817 whole entry, the tested form may be a part): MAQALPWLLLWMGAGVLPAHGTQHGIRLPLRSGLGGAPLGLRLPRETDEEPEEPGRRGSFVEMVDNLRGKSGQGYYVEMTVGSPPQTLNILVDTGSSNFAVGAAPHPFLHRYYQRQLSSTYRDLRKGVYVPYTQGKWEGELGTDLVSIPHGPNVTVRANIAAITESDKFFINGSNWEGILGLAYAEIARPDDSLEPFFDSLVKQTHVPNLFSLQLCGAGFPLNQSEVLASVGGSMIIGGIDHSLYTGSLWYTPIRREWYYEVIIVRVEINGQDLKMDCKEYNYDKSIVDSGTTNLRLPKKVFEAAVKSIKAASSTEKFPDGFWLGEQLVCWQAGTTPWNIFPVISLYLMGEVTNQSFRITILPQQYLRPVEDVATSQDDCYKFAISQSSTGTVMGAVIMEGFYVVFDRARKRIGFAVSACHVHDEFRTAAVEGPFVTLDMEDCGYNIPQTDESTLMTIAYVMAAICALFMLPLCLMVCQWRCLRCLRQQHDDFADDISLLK

N2a [3] = experiment: Inhibition of gamma-secretase in mouse N2A cells transfected with NotchdeltaE assessed as reduction in Notch intracellular domain level at 8 uM after 10 hrs by densitometry analysis; assay type: cell-based
N2a [4] = experiment: Decrease in amyloid beta40 level in mouse N2A cells expressing human APP695 at 10 uM after 10 hrs by sandwich ELISA; assay type: functional, cell-based
[5] = target: Disintegrin and metalloproteinase domain-containing protein 17 (Homo sapiens) (UniProt P78536); experiment: Activation of TACE in human SH-SY5Y cells at 8 uM after 10 hrs by fluorescence assay; assay type: cell-based
Sequence of Disintegrin and metalloproteinase domain-containing protein 17 (Homo sapiens) (P78536 whole entry, the tested form may be a part): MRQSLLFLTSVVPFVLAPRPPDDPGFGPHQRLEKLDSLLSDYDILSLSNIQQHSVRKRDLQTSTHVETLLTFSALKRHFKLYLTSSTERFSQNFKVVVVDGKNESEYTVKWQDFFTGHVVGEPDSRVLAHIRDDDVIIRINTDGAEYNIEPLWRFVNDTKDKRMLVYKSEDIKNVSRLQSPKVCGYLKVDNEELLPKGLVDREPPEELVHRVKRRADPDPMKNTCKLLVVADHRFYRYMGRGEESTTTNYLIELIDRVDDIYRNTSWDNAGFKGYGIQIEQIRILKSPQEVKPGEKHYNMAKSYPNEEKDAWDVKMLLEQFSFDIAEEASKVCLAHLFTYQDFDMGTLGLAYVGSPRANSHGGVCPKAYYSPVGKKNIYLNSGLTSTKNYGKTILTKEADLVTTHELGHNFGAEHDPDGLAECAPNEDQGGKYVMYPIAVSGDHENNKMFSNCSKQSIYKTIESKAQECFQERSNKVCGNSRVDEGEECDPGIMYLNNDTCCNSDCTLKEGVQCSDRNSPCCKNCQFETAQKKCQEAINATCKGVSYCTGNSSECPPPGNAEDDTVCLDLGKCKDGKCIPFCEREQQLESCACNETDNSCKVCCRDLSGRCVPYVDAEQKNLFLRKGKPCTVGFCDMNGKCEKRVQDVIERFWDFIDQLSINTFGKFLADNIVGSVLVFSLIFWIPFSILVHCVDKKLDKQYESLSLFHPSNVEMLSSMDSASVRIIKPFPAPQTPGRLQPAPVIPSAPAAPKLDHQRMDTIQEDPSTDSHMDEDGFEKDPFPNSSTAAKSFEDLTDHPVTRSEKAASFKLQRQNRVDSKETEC

N2a [6] = experiment: Decrease in amyloid beta40 level in mouse N2A cells expressing human APP695 after 10 hrs by sandwich ELISA; assay type: functional, cell-based
N2a [7] = experiment: Cytotoxicity against mouse N2A cells expressing human APP695 assessed as reduction in cell viability at 8 to 100 uM after 10 hrs by CCK-8 assay; assay type: cell-based
N2a [8] = experiment: Upregulation of soluble APP alpha protein level in mouse N2A cells expressing human APP695 at 8 uM after 10 hrs by Western blot analysis; assay type: functional, cell-based
N2a [9] = experiment: Effect on ADAM17 level in mouse N2A cells expressing human APP695 at 8 uM after 10 hrs by Western blot analysis; assay type: functional, cell-based
[10] = target: Beta-secretase 1 (Mus musculus) (UniProt P56818); experiment: Inhibition of BACE1 in mouse N2A cells expressing human APP695 assessed as decrease in soluble APP beta protein level at 8 uM after 10 hrs by Western blot analysis; assay type: cell-based
Sequence of Beta-secretase 1 (Mus musculus) (P56818 whole entry): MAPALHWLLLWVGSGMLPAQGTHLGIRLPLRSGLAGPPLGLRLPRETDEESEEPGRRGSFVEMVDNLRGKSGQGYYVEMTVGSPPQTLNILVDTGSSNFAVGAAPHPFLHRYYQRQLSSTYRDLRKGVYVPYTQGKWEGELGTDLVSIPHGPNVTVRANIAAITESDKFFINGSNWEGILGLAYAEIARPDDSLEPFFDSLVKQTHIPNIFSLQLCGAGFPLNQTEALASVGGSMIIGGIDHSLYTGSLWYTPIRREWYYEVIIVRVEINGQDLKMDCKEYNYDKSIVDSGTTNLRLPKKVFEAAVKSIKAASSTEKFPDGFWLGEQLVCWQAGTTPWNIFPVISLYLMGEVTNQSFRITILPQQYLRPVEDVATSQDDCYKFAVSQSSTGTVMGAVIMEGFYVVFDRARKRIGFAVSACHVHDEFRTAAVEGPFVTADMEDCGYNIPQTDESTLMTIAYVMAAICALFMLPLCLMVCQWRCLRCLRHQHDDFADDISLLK

[11] = target: Beta-secretase 1 (Mus musculus) (UniProt P56818); experiment: Inhibition of BACE1 in mouse N2A cells at 8 uM after 10 hrs by fluorescence plate reader analysis; assay type: cell-based
N2a [12] = experiment: Effect on BACE1 level in mouse N2A cells expressing human APP695 at 8 uM after 10 hrs by Western blot analysis; assay type: functional, cell-based
N2a [13] = experiment: Effect on full length APP level in mouse N2A cells expressing human APP695 at 8 uM after 10 hrs by Western blot analysis; assay type: functional, cell-based
N2a [14] = experiment: Decrease in amyloid beta42 level in mouse N2A cells expressing human APP695 after 10 hrs by sandwich ELISA; assay type: functional, cell-based
N2a [15] = experiment: Effect on mature ADAM10 level in mouse N2A cells expressing human APP695 at 8 uM after 10 hrs by Western blot analysis; assay type: functional, cell-based
N2a [16] = experiment: Downregulation of N-terminal fragment of presenilin1 level in mouse N2A cells at 8 uM after 10 hrs by Western blot analysis; assay type: functional, cell-based
N2a [17] = experiment: Cytotoxicity against mouse N2A cells expressing human APP695 assessed as reduction in cell viability up to 8 uM after 10 hrs by CCK-8 assay; assay type: cell-based
[18] = target: Beta-secretase 1 (Mus musculus) (UniProt P56818); experiment: Inhibition of BACE1 in mouse N2A cells expressing human APP695 assessed as reduction in amyloid beta42 level after 10 hrs by sandwich ELISA; assay type: cell-based
[19] = target: Beta-secretase 1 (Mus musculus) (UniProt P56818); experiment: Inhibition of BACE1 in mouse N2A cells expressing human APP695 assessed as reduction in amyloid beta40 level at 10 uM after 10 hrs by sandwich ELISA; assay type: cell-based
[20] = target: Beta-secretase 1 (Mus musculus) (UniProt P56818); experiment: Inhibition of BACE1 in mouse N2A cells expressing human APP695 assessed as reduction in amyloid beta40 level after 10 hrs by sandwich ELISA; assay type: cell-based
N2a [21] = experiment: Cytotoxicity against mouse N2A cells expressing human APP695 assessed as reduction in cell viability up to 16 uM after 10 hrs by CCK-8 assay; assay type: cell-based
N2a [22] = experiment: Cytotoxicity against mouse N2A cells expressing human APP695 assessed as reduction in cell viability at 16 to 100 uM after 10 hrs by CCK-8 assay; assay type: cell-based
N2a [23] = experiment: Upregulation of soluble APP alpha protein level in mouse N2A cells expressing human APP695 at 10 uM after 10 hrs by Western blot analysis; assay type: functional, cell-based

SMILES: Oc1ccc([C@H]2c3c(O)cc(O)cc3[C@H]3c4c(cc(O)cc4[C@H]4[C@H](c5ccc(O)cc5)c5cc(O)cc(O)c5[C@H]24)O[C@@H]3c2ccc(O)cc2)cc1
- Activity (N2a [1]): inactive
- inhibition [2]: Active
- inhibition (N2a [3]): inactive
- Activity (N2a [4]): Active
- Activity [5]: Active
- Activity (N2a [6]): Dose-dependent effect
- Activity (N2a [7]): Dose-dependent effect
- Activity (N2a [8]): Active
- Activity (N2a [9]): inactive
- inhibition [10]: inactive
- inhibition [11]: inactive
- Activity (N2a [12]): inactive
- Activity (N2a [13]): inactive
- Activity (N2a [14]): Dose-dependent effect
- Activity (N2a [15]): inactive
- Activity (N2a [16]): inactive
- Activity (N2a [17]): Non-toxic

SMILES: Oc1ccc([C@@H]2c3c(O)cc4c5c3[C@@H]([C@@H](c3ccc(O)cc3)c3c(O)cc(O)cc3[C@@H]5[C@@H](c3ccc(O)cc3)O4)[C@H]2c2cc(O)cc(O)c2)cc1 [AMPELOPSIN C]
- Activity (N2a [1]): inactive
- inhibition [2]: Active
- inhibition (N2a [3]): inactive
- Activity [5]: inactive
- Activity (N2a [7]): Dose-dependent effect
- Activity (N2a [8]): Active
- Activity (N2a [9]): inactive
- inhibition [10]: Active
- inhibition [11]: Active
- Activity (N2a [12]): inactive
- Activity (N2a [13]): inactive
- Activity (N2a [15]): inactive
- Activity (N2a [16]): inactive
- Activity (N2a [17]): Non-toxic
- inhibition [18]: Dose-dependent effect
- inhibition [19]: Active
- inhibition [20]: Dose-dependent effect

SMILES: Oc1ccc([C@@H]2c3c(O)cc(O)cc3[C@@H]3c4c(cc(O)c5c4[C@H]2[C@@H](c2cc(O)cc(O)c2)[C@@H]5c2ccc(O)cc2)O[C@H]3c2ccc(O)cc2)cc1
- Activity (N2a [1]): inactive
- inhibition [2]: Active
- inhibition (N2a [3]): inactive
- Activity (N2a [4]): Active
- Activity (N2a [21]): Non-toxic
- Activity [5]: inactive
- Activity (N2a [6]): Dose-dependent effect
- Activity (N2a [8]): Active
- Activity (N2a [9]): inactive
- inhibition [10]: inactive
- Activity (N2a [22]): Dose-dependent effect
- inhibition [11]: Active
- Activity (N2a [12]): inactive
- Activity (N2a [13]): inactive
- Activity (N2a [14]): Dose-dependent effect
- Activity (N2a [15]): inactive
- Activity (N2a [16]): inactive

SMILES: C[C@@H](NC(=O)c1cc(C(=O)N[C@@H](Cc2ccccc2)[C@H](O)CNC2CC2)cc(N(C)S(C)(=O)=O)c1)c1ccccc1
- Activity (N2a [23]): Active
